Values quoted from earlier work in patent US20100086647A1, “FEED OR FOOD PRODUCTS COMPRISING FUNGAL MATERIAL” (MEDIMUSH AS, priority 2005, published 2010).

Tests used:
S. pyogenes = settings: in vitro
C. jejuni = settings: postulated
E. coli = settings: postulated
B. megaterium = settings: in vitro
S. staphylococcus = settings: in vitro

Row | expression of cytochrome P450s (CYPs) (cytochrome P450s (CYPs)) | Compound | antibacterial effect (S. pyogenes) | effect on microorganism (C. jejuni) | effect on microorganism (E. coli) | antibacterial effect (B. megaterium) | antibacterial effect (S. staphylococcus)
1 | – | C1SSCSSS1 [Lenthionine] | antibacterial | no effect | no effect | antibacterial | antibacterial
2 | can suppress the expression | Lentinan | – | – | – | – | –
